Measurements as given in patent publication US9598416B2, “Substituted benzothienyl-pyrrolotriazines and uses thereof in the treatment cancer” (Bayer Intellectual Property GmbH, priority 2011, dated 2017).
pIC50: −log10 of the molar value. Structures can show the parent of a compound that is named as a salt. Where two headings read alike, the source gives them in different places.

Experiments:
human FGFR-3 = human FGFR-3 (Homo sapiens (Human), UniProt P22607); assay: FGFR-3 kinase assay (TR-FRET); type: biochemical; details: 10 μM ATP; compounds of the invention
Sequence of human FGFR-3 (P22607 397-806): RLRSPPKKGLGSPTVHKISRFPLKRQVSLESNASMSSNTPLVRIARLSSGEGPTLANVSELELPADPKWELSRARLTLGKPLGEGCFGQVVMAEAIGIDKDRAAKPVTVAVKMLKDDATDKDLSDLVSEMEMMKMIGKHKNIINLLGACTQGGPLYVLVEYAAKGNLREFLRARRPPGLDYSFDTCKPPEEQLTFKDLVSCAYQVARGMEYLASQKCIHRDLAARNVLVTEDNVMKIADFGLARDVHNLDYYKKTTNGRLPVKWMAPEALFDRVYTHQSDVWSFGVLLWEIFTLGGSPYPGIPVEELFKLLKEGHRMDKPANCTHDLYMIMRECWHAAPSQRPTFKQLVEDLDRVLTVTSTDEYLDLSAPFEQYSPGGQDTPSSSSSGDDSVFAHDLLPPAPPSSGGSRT

human mTOR = human mTOR (Homo sapiens (Human), UniProt P42345); assay: mTOR kinase assay (TR-FRET, for comparative purposes); type: biochemical; details: for inhibition at 1 µM: read-out: mTOR % inhibition @ 1 μM
Sequence of human mTOR (P42345 1360-2549): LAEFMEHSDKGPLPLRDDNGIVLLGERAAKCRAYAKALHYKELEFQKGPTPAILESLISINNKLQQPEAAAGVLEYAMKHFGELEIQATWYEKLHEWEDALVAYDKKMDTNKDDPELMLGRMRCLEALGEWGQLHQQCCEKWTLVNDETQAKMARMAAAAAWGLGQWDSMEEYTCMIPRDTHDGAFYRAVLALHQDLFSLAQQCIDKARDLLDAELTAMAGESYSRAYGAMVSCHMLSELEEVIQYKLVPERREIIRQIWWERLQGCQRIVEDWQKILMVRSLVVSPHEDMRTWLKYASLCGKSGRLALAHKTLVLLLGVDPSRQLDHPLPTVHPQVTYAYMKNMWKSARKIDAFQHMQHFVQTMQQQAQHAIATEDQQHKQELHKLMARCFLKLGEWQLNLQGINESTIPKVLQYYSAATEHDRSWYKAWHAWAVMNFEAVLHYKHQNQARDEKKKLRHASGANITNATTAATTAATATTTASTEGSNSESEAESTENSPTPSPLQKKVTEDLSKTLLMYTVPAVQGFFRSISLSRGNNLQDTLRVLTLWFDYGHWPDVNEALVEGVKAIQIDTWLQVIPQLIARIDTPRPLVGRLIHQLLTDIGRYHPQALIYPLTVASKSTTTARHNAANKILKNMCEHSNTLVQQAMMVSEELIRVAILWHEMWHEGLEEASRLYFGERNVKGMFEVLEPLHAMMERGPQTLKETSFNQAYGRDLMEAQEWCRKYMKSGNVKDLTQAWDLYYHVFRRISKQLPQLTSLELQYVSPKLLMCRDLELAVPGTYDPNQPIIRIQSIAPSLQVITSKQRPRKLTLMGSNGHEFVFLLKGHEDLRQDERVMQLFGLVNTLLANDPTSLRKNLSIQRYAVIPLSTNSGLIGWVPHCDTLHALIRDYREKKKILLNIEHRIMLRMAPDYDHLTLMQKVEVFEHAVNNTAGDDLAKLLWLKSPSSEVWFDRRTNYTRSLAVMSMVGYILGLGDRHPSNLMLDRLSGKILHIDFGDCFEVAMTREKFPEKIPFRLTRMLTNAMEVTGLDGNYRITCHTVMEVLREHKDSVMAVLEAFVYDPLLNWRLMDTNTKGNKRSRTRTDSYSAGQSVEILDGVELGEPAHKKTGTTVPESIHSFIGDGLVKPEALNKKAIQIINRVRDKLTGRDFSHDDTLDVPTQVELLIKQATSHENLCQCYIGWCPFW
Description: mTOR inhibitory activity of the compounds of the present invention was quantified employing the TR-FRET based mTOR assay as described in the following paragraphs: Recombinant fusion tagged mTOR protein [glutathione-S-transferase (GST) fused to human mTOR amino acids from 1360 to 2549], expressed in insect cells and purified by glutathione-sepharose affinity chromatography, was purchased from Invitrogen (Cat.-No. 4753) and used as enzyme. As substrate for the kinase reaction, a recombinant fusion protein of GFP and 4E-BP1 (purchased from Invitrogen, Cat.-No. PV4759) was used. Test compounds were dissolved in DMSO to generate 10 mM stock solutions. […] The resulting mixture was incubated for 1 h at 22° C. to allow formation of the complex between the phosphorylated substrate and the Tb-chelate labelled antibody. Subsequently, the amount of phosphorylated substrate was evaluated by measurement of the resonance energy transfer from the Tb-chelate to the GFP. For this, the fluorescence emissions at 495 nm and 520 nm after excitation at 340 nm was measured in an Envision 2104 multilabel reader (Perkin-Elmer). The ratio of the emissions at 520 nm and at 495 nm was taken as the measure for the amount of phosphorylated substrate.

[1] = 1 μM test compound, mean inhibition values

Structure (SMILES) | pIC50 (human FGFR-3) | inhibition at 1 µM (human mTOR; [1]) | inhibition at 1 µM (human mTOR) | mTOR % inhibition @ 1 μM (human mTOR; [1])
COc1cc(C)cc2cc(-c3c(CN4CCCC4C(N)=O)cn4ncnc(N)c34)sc12 (racemic) [Example 19, rac-1-{[4-Amino-5-(7-methoxy-5-methyl-1-benzothiophen-2-yl)pyrrolo[2,1-f][1,2,4]triazin-6-yl]-methyl}prolinamide dihydrochloride] | 7.95 | – | 1.8% | –
COc1cc(C)cc2cc(-c3c(CNCCO)cn4ncnc(N)c34)sc12 [Example 10, 2-({[4-Amino-5-(7-methoxy-5-methyl-1-benzothiophen-2-yl)pyrrolo[2,1-f][1,2,4]triazin-6-yl]-methyl}amino)ethanol dihydrochloride] | 8.85 | – | 10.3% | –
COc1cc(C)cc2cc(-c3c(COCCCO)cn4ncnc(N)c34)sc12 [Example 1, 3-{[4-Amino-5-(7-methoxy-5-methyl-1-benzothiophen-2-yl)pyrrolo[2,1-f][1,2,4]triazin-6-yl]-methoxy}propan-1-ol hydrochloride] | 7.74 | – | 1.9% | –
COc1cc(C)cc2cc(-c3c(CNCCCO)cn4ncnc(N)c34)sc12 [Example 20, 3-({[4-Amino-5-(7-methoxy-5-methyl-1-benzothiophen-2-yl)pyrrolo[2,1-f][1,2,4]triazin-6-yl]-methyl}amino)propan-1-ol dihydrochloride] | 7.82 | – | – | no inhib. effect detect.
COc1cc(C)cc2cc(-c3c(CN[C@H]4CCNC4=O)cn4ncnc(N)c34)sc12 [Example 27, (3S)-3-({[4-Amino-5-(7-methoxy-5-methyl-1-benzothiophen-2-yl)pyrrolo[2,1-f][1,2,4]triazin-6-yl]-methyl}amino)pyrrolidin-2-one dihydrochloride] | 9.30 | – | 5% | –
COc1cc(C)cc2cc(-c3c(CNCCNC(C)=O)cn4ncnc(N)c34)sc12 [Example 24, N-[2-({[4-Amino-5-(7-methoxy-5-methyl-1-benzothiophen-2-yl)pyrrolo[2,1-f][1,2,4]triazin-6-yl]-methyl}amino)ethyl]acetamide trifluoroacetate] | 8.06 | – | 0.3% | –
COc1cc(C)cc2cc(-c3c(CN4CCNCC4)cn4ncnc(N)c34)sc12 [Example 25, 5-(7-Methoxy-5-methyl-1-benzothiophen-2-yl)-6-(piperazin-1-ylmethyl)pyrrolo[2,1-f][1,2,4]triazin-4-amine trihydrochloride] | 9.40 | – | – | no inhib. effect detect.
COc1cc(C)cc2cc(-c3c(CO[C@@H](C)CO)cn4ncnc(N)c34)sc12 [Example 3, (2S)-2-{[4-Amino-5-(7-methoxy-5-methyl-1-benzothiophen-2-yl)pyrrolo[2,1-f][1,2,4]triazin-6-yl]-methoxy}propan-1-ol] | 8.38 | 2.5% | – | –
COc1cc(C)cc2cc(-c3c(CNCC(C)(C)O)cn4ncnc(N)c34)sc12 [Example 17, 1-({[4-Amino-5-(7-methoxy-5-methyl-1-benzothiophen-2-yl)pyrrolo[2,1-f][1,2,4]triazin-6-yl]-methyl}amino)-2-methylpropan-2-ol dihydrochloride] | 8.74 | – | – | no inhib. effect detect.
COc1cc(C)cc2cc(-c3c(COC[C@H](C)O)cn4ncnc(N)c34)sc12 [Example 2, (2S)-1-{[4-Amino-5-(7-methoxy-5-methyl-1-benzothiophen-2-yl)pyrrolo[2,1-f][1,2,4]triazin-6-yl]-methoxy}propan-2-ol] | 8.66 | 6.1% | – | –
COc1cc(C)cc2cc(-c3c(COCCO)cn4ncnc(N)c34)sc12 [Example 7, 2-{[4-Amino-5-(7-methoxy-5-methyl-1-benzothiophen-2-yl)pyrrolo[2,1-f][1,2,4]triazin-6-yl]-methoxy}ethanol hydrochloride] | 8.24 | – | 4.7% | –

The next lines start with results.

pIC50 (human FGFR-3) | inhibition at 1 µM (human mTOR; [1]) | Structure (SMILES) | inhibition at 1 µM (human mTOR) | mTOR % inhibition @ 1 μM (human mTOR; [1])
9.52 | 9.1% | COc1cc(Cl)cc2cc(-c3c(CN4CCNC(=O)C4)cn4ncnc(N)c34)sc12 [Example 31, 4-{[4-Amino-5-(5-chloro-7-methoxy-1-benzothiophen-2-yl)pyrrolo[2,1-f][1,2,4]triazin-6-yl]methyl}-piperazin-2-one] | – | –
7.85 | 35.5% | CCOCc1cn2ncnc(N)c2c1-c1cc2cc(C)cc(OC)c2s1 [Example 28, 6-(Ethoxymethyl)-5-(7-methoxy-5-methyl-1-benzothiophen-2-yl)pyrrolo[2,1-f][1,2,4]triazin-4-amine] | – | –
8.64 | 8.8% | COc1cc(C)cc2cc(-c3c(CNCC(N)=O)cn4ncnc(N)c34)sc12 [Example 16, N^2-{[4-Amino-5-(7-methoxy-5-methyl-1-benzothiophen-2-yl)pyrrolo[2,1-f][1,2,4]triazin-6-yl]-methyl}glycinamide] | – | –
9.10 | 0.3% | COc1cc(C)cc2cc(-c3c(CN(C)CC(N)=O)cn4ncnc(N)c34)sc12 [Example 14, N^2-{[4-Amino-5-(7-methoxy-5-methyl-1-benzothiophen-2-yl)pyrrolo[2,1-f][1,2,4]triazin-6-yl]-methyl}-N^2-methylglycinamide] | – | –
9.70 | 4.7% | COc1cc(C)cc2cc(-c3c(COCCN)cn4ncnc(N)c34)sc12 [Example 8, 6-[(2-Aminoethoxy)methyl]-5-(7-methoxy-5-methyl-1-benzothiophen-2-yl)pyrrolo[2,14][1,2,4]-triazin-4-amine dihydrochloride] | – | –
7.30 | 8.4% | CCOC(=O)COCc1cn2ncnc(N)c2c1-c1cc2cc(C)cc(OC)c2s1 [Example 4, Ethyl {[4-amino-5-(7-methoxy-5-methyl-1-benzothiophen-2-yl)pyrrolo[2,1-f][1,2,4]triazin-6-yl]-methoxy}acetate] | – | –
7.55 | – | COc1cc(C)cc2cc(-c3c(CN4CCN(C(C)=O)CC4)cn4ncnc(N)c34)sc12 [Example 21, 1-(4-{[4-Amino-5-(7-methoxy-5-methyl-1-benzothiophen-2-yl)pyrrolo[2,1-f][1,2,4]triazin-6-yl]-methyl}piperazin-1-yl)ethanone] | – | no inhib. effect detect.
7.76 | 2% | COc1cc(C)cc2cc(-c3c(CN4CCOCC4)cn4ncnc(N)c34)sc12 [Example 23, 5-(7-Methoxy-5-methyl-1-benzothiophen-2-yl)-6-(morpholin-4-ylmethyl)pyrrolo[2,1-f][1,2,4]triazin-4-amine] | – | –
7.94 | 7.2% | COc1cc(C)cc2cc(-c3c(CNC(C)C(N)=O)cn4ncnc(N)c34)sc12 (racemic) [Example 12, rac-N^2-{[4-Amino-5-(7-methoxy-5-methyl-1-benzothiophen-2-yl)pyrrolo[2,1-f][1,2,4]triazin-6-yl]-methyl}alaninamide] | – | –
8.51 | 1.6% | COc1cccc2cc(-c3c(CN4CCNC(=O)C4)cn4ncnc(N)c34)sc12 [Example 30, 4-{[4-Amino-5-(7-methoxy-1-benzothiophen-2-yl)pyrrolo[2,1-f][1,2,4]triazin-6-yl]methyl}piperazin-2-one] | – | –
9.40 | – | COc1cc(C)cc2cc(-c3c(CN4CCNC(=O)C4)cn4ncnc(N)c34)sc12 [Example 11, 4-{[4-Amino-5-(7-methoxy-5-methyl-1-benzothiophen-2-yl)pyrrolo[2,1-f][1,2,4]triazin-6-yl]-methyl}piperazin-2-one] | – | no inhib. effect detect.
7.14 | 2.7% | COc1cc(C)cc2cc(-c3c(COCC(=O)O)cn4ncnc(N)c34)sc12 [Example 5, {[4-Amino-5-(7-methoxy-5-methyl-1-benzothiophen-2-yl)pyrrolo[2,1-f][1,2,4]triazin-6-yl]-methoxy}acetic acid] | – | –
7.82 | 5.3% | CNC(=O)CNCc1cn2ncnc(N)c2c1-c1cc2cc(C)cc(OC)c2s1 [Example 13, N^2-{[4-Amino-5-(7-methoxy-5-methyl-1-benzothiophen-2-yl)pyrrolo[2,1-f][1,2,4]triazin-6-yl]-methyl}-N-methylglycinamide] | – | –
